# Square brackets hold non-standard residues; d marks the D form. Peptide text beside a SMILES is read from it. Phe(4-Cl) = N[C@@H](Cc1ccc(Cl)cc1)C(=O)O; Phe(2-Cl) = N[C@@H](Cc1ccccc1Cl)C(=O)O; Cha = N[C@@H](CC1CCCCC1)C(=O)O
# Target: T1, Androgen receptor (Homo sapiens, UniProt P10275)
# T1 sequence (P10275 whole entry): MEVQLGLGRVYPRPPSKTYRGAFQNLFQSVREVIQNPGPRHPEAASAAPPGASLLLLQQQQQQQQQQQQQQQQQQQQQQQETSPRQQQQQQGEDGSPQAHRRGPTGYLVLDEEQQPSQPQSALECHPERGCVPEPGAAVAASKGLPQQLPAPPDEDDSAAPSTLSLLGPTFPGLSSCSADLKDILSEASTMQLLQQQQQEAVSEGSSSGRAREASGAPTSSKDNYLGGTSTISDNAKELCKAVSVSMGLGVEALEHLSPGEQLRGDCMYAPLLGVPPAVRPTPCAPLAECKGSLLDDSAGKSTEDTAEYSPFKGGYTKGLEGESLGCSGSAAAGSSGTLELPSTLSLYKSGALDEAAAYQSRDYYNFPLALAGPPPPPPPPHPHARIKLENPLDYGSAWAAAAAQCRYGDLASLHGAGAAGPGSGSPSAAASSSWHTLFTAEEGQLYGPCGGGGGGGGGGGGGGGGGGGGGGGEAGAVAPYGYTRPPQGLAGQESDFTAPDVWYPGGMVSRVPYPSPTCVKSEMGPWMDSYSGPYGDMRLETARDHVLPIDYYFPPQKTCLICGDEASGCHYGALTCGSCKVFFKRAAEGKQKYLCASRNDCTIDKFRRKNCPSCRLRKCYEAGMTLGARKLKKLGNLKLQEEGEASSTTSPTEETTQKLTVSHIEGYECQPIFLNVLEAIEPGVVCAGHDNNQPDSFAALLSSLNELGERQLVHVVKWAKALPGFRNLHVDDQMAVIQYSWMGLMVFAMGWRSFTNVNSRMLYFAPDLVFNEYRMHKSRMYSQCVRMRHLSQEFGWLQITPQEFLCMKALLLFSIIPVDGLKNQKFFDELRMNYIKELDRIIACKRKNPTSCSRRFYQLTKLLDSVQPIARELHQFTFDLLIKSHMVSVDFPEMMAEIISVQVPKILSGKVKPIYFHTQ
# Assay: Displacement of fluorescein-CSSRFESLFAGEKESR from human androgen receptor-LBD after 1 hr by fluorescence polarization assay
row,Compound,Ki
1,CC(C)C[C@H](NC(=O)[C@H](CS)NC(=O)[C@H](CC(N)=O)NC(=O)[C@H](Cc1ccc(Cl)cc1)NC(=O)[C@H](Cc1ccc(O)cc1)NC(=O)[C@H](CS)NC(=O)[C@H](C)N)C(=O)N[C@@H](Cc1ccccc1)C(=O)N[C@@H](CCC(=O)O)C(=O)NCC(=O)N[C@@H](CC(N)=O)C(=O)N[C@@H](CC(=O)O)C(=O)N[C@@H](CCC(=O)O)C(=O)N[C@@H](CCC(=O)O)C(=O)N[C@H](C(=O)N[C@@H](CS)C(=O)N[C@@H](CCCCN)C(=O)N[C@@H](CCC(=O)O)C(=O)N[C@@H](Cc1c[nH]c2ccccc12)C(=O)N[C@@H](CS)C(=O)O)[C@@H](C)O (H-ACY[Phe(4-Cl)]NCLFEGNDEETCKEWC-OH),3 µM
2,CC[C@H](C)[C@H](NC(=O)[C@H](CS)NC(=O)[C@H](Cc1ccccc1)NC(=O)[C@H](CC(C)C)NC(=O)[C@H](CCC(=O)O)NC(=O)[C@H](CS)NC(=O)[C@H](Cc1ccccc1)NC(=O)[C@H](CCCNC(=N)N)NC(=O)[C@@H](N)CCCCN)C(=O)N[C@@H](CCC(N)=O)C(=O)NCC(=O)N[C@H](C(=O)NCC(=O)N[C@@H](CC(=O)O)C(=O)N[C@H](C(=O)N[C@@H](CCCCN)C(=O)N[C@@H](C)C(=O)N[C@@H](CS)C(=O)N[C@@H](CCC(=O)O)C(=O)N[C@@H](Cc1c[nH]c2ccccc12)C(=O)N[C@@H](C)C(=O)N[C@@H](CS)C(=O)N[C@@H](CCC(N)=O)C(=O)O)C(C)C)[C@@H](C)O (H-KRFCELFCIQGTGDVKACEWACQ-OH),1.9 µM
3,CC[C@H](C)[C@H](NC(=O)[C@H](CS)NC(=O)[C@H](Cc1ccccc1)NC(=O)[C@H](CC(C)C)NC(=O)[C@H](CCC(=O)O)NC(=O)[C@H](CS)NC(=O)[C@H](Cc1ccccc1)NC(=O)[C@H](CC(C)C)NC(=O)[C@@H](N)CC(N)=O)C(=O)N[C@@H](CCC(N)=O)C(=O)NCC(=O)N[C@H](C(=O)NCC(=O)N[C@@H](CC(=O)O)C(=O)N[C@H](C(=O)N[C@@H](CCCCN)C(=O)N[C@@H](C)C(=O)N[C@@H](CS)C(=O)N[C@@H](CCC(=O)O)C(=O)N[C@@H](Cc1c[nH]c2ccccc12)C(=O)N[C@@H](C)C(=O)N[C@@H](CS)C(=O)N[C@@H](CCC(N)=O)C(=O)O)C(C)C)[C@@H](C)O (H-NLFCELFCIQGTGDVKACEWACQ-OH),10 µM
4,CC(C)C[C@H](NC(=O)[C@H](CCC(=O)O)NC(=O)[C@H](CS)NC(=O)[C@H](Cc1ccccc1)NC(=O)[C@H](CCCNC(=N)N)NC(=O)[C@@H](N)CC(N)=O)C(=O)N[C@@H](Cc1ccccc1)C(=O)N[C@@H](CS)C(=O)N[C@@H](Cc1ccccc1)C(=O)N[C@@H](CCC(N)=O)C(=O)NCC(=O)N[C@H](C(=O)NCC(=O)N[C@@H](CC(=O)O)C(=O)N[C@H](C(=O)N[C@@H](CCCCN)C(=O)N[C@@H](C)C(=O)N[C@@H](CS)C(=O)N[C@@H](CCC(=O)O)C(=O)N[C@@H](Cc1c[nH]c2ccccc12)C(=O)N[C@@H](C)C(=O)N[C@@H](CS)C(=O)N[C@@H](CCC(N)=O)C(=O)O)C(C)C)[C@@H](C)O (H-NRFCELFCFQGTGDVKACEWACQ-OH),3.6 µM
5,CC[C@H](C)[C@H](NC(=O)[C@H](CS)NC(=O)[C@H](Cc1ccccc1)NC(=O)[C@H](CC(C)C)NC(=O)[C@H](CCC(=O)O)NC(=O)[C@H](CS)NC(=O)[C@H](Cc1ccccc1)NC(=O)[C@H](CCCNC(=N)N)NC(=O)[C@@H](N)CC(N)=O)C(=O)N[C@@H](CCC(=O)O)C(=O)NCC(=O)N[C@H](C(=O)NCC(=O)N[C@@H](CC(=O)O)C(=O)N[C@H](C(=O)N[C@@H](CCCCN)C(=O)N[C@@H](C)C(=O)N[C@@H](CS)C(=O)N[C@@H](CCC(=O)O)C(=O)N[C@@H](Cc1c[nH]c2ccccc12)C(=O)N[C@@H](C)C(=O)N[C@@H](CS)C(=O)N[C@@H](CCC(N)=O)C(=O)O)C(C)C)[C@@H](C)O (H-NRFCELFCIEGTGDVKACEWACQ-OH),2.1 µM
6,CC[C@H](C)[C@H](NC(=O)[C@H](CS)NC(=O)[C@H](Cc1ccccc1)NC(=O)[C@H](CC(C)C)NC(=O)[C@H](CCC(=O)O)NC(=O)[C@H](CS)NC(=O)[C@H](Cc1ccccc1)NC(=O)[C@H](CCCNC(=N)N)NC(=O)[C@@H](N)CC(N)=O)C(=O)N[C@@H](CCC(N)=O)C(=O)N[C@@H](CC(=O)O)C(=O)N[C@H](C(=O)NCC(=O)N[C@@H](CC(=O)O)C(=O)N[C@H](C(=O)N[C@@H](CCCCN)C(=O)N[C@@H](C)C(=O)N[C@@H](CS)C(=O)N[C@@H](CCC(=O)O)C(=O)N[C@@H](Cc1c[nH]c2ccccc12)C(=O)N[C@@H](C)C(=O)N[C@@H](CS)C(=O)N[C@@H](CCC(N)=O)C(=O)O)C(C)C)[C@@H](C)O (H-NRFCELFCIQDTGDVKACEWACQ-OH),2.1 µM
7,CC[C@H](C)[C@H](NC(=O)[C@H](CS)NC(=O)[C@H](Cc1ccccc1)NC(=O)[C@H](CC(C)C)NC(=O)[C@H](CCC(=O)O)NC(=O)[C@H](CS)NC(=O)[C@H](Cc1ccccc1)NC(=O)[C@H](CCCNC(=N)N)NC(=O)[C@@H](N)CC(N)=O)C(=O)N[C@@H](CCC(N)=O)C(=O)NCC(=O)N[C@H](C(=O)N[C@@H](CCC(=O)O)C(=O)N[C@@H](CC(=O)O)C(=O)N[C@H](C(=O)N[C@@H](CCCCN)C(=O)N[C@@H](C)C(=O)N[C@@H](CS)C(=O)N[C@@H](CCC(=O)O)C(=O)N[C@@H](Cc1c[nH]c2ccccc12)C(=O)N[C@@H](C)C(=O)N[C@@H](CS)C(=O)N[C@@H](CCC(N)=O)C(=O)O)C(C)C)[C@@H](C)O (H-NRFCELFCIQGTEDVKACEWACQ-OH),3 µM
8,CC[C@H](C)[C@H](NC(=O)[C@H](CS)NC(=O)[C@H](Cc1ccccc1)NC(=O)[C@H](CC(C)C)NC(=O)[C@H](CCC(=O)O)NC(=O)[C@H](CS)NC(=O)[C@H](Cc1ccccc1)NC(=O)[C@H](CCCNC(=N)N)NC(=O)[C@@H](N)CC(N)=O)C(=O)N[C@@H](CCC(N)=O)C(=O)NCC(=O)N[C@H](C(=O)NCC(=O)N[C@@H](CC(=O)O)C(=O)N[C@H](C(=O)N[C@@H](CCCCN)C(=O)N[C@@H](C)C(=O)N[C@@H](CS)C(=O)N[C@@H](CCC(=O)O)C(=O)N[C@@H](CCC(=O)O)C(=O)N[C@@H](C)C(=O)N[C@@H](CS)C(=O)N[C@@H](CCC(N)=O)C(=O)O)C(C)C)[C@@H](C)O (H-NRFCELFCIQGTGDVKACEEACQ-OH),1.3 µM
9,CC[C@H](C)[C@H](NC(=O)[C@H](CS)NC(=O)[C@H](Cc1ccccc1)NC(=O)[C@H](CC(C)C)NC(=O)[C@H](CCC(=O)O)NC(=O)[C@H](CS)NC(=O)[C@H](Cc1ccccc1)NC(=O)[C@H](CCCNC(=N)N)NC(=O)[C@@H](N)CC(N)=O)C(=O)N[C@@H](CCC(N)=O)C(=O)NCC(=O)N[C@H](C(=O)NCC(=O)N[C@@H](CC(=O)O)C(=O)N[C@H](C(=O)N[C@@H](CCCCN)C(=O)N[C@@H](C)C(=O)N[C@@H](CS)C(=O)N[C@@H](CCC(=O)O)C(=O)N[C@@H](Cc1c[nH]c2ccccc12)C(=O)N[C@@H](C)C(=O)N[C@@H](CS)C(=O)N[C@@H](CCC(N)=O)C(=O)O)C(C)C)[C@@H](C)O (H-NRFCELFCIQGTGDVKACEWACQ-OH),4.1 µM
10,CC[C@H](C)[C@H](NC(=O)[C@H](CS)NC(=O)[C@H](CC1CCCCC1)NC(=O)[C@H](CC(C)C)NC(=O)[C@H](CCC(=O)O)NC(=O)[C@H](CS)NC(=O)[C@H](Cc1ccccc1)NC(=O)[C@H](CCCNC(=N)N)NC(=O)[C@@H](N)CC(N)=O)C(=O)N[C@@H](CCC(N)=O)C(=O)NCC(=O)N[C@H](C(=O)NCC(=O)N[C@@H](CC(=O)O)C(=O)N[C@H](C(=O)N[C@@H](CCCCN)C(=O)N[C@@H](C)C(=O)N[C@@H](CS)C(=O)N[C@@H](CCC(=O)O)C(=O)N[C@@H](Cc1c[nH]c2ccccc12)C(=O)N[C@@H](C)C(=O)N[C@@H](CS)C(=O)N[C@@H](CCC(N)=O)C(=O)O)C(C)C)[C@@H](C)O (H-NRFCEL[Cha]CIQGTGDVKACEWACQ-OH),56 µM
11,CC[C@H](C)[C@H](NC(=O)[C@H](CS)NC(=O)[C@H](Cc1ccccc1Cl)NC(=O)[C@H](CC(C)C)NC(=O)[C@H](CCC(=O)O)NC(=O)[C@H](CS)NC(=O)[C@H](Cc1ccccc1)NC(=O)[C@H](CCCNC(=N)N)NC(=O)[C@@H](N)CC(N)=O)C(=O)N[C@@H](CCC(N)=O)C(=O)NCC(=O)N[C@H](C(=O)NCC(=O)N[C@@H](CC(=O)O)C(=O)N[C@H](C(=O)N[C@@H](CCCCN)C(=O)N[C@@H](C)C(=O)N[C@@H](CS)C(=O)N[C@@H](CCC(=O)O)C(=O)N[C@@H](Cc1c[nH]c2ccccc12)C(=O)N[C@@H](C)C(=O)N[C@@H](CS)C(=O)N[C@@H](CCC(N)=O)C(=O)O)C(C)C)[C@@H](C)O (H-NRFCEL[Phe(2-Cl)]CIQGTGDVKACEWACQ-OH),0.4 µM
12,CC[C@H](C)[C@H](NC(=O)[C@H](CS)NC(=O)[C@H](Cc1ccc(Cl)cc1)NC(=O)[C@H](CC(C)C)NC(=O)[C@H](CCC(=O)O)NC(=O)[C@H](CS)NC(=O)[C@H](Cc1ccccc1)NC(=O)[C@H](CCCNC(=N)N)NC(=O)[C@@H](N)CC(N)=O)C(=O)N[C@@H](CCC(N)=O)C(=O)NCC(=O)N[C@H](C(=O)NCC(=O)N[C@@H](CC(=O)O)C(=O)N[C@H](C(=O)N[C@@H](CCCCN)C(=O)N[C@@H](C)C(=O)N[C@@H](CS)C(=O)N[C@@H](CCC(=O)O)C(=O)N[C@@H](Cc1c[nH]c2ccccc12)C(=O)N[C@@H](C)C(=O)N[C@@H](CS)C(=O)N[C@@H](CCC(N)=O)C(=O)O)C(C)C)[C@@H](C)O (H-NRFCEL[Phe(4-Cl)]CIQGTGDVKACEWACQ-OH),32 µM

# Source: ChEMBL document CHEMBL3132744, “Structureactivity relationship studies of miniproteins targeting the androgen receptorcoactivator interaction” (Medchemcomm, 2013)
